Reference: article PMC3883446 (Bioorganic & medicinal chemistry letters, 2012)
Where two headings read alike, the source gives them in different places. Each block holds one molecule with its values, some of them ahead of it.

Key:
[1] = test system: M1 mAChR; assay: equilibrium radioligand binding, [3H]NMS competition; conditions: Figure 4A
[2] = target: T1, M1 (Homo sapiens, UniProt P11229); type: cell-based; conditions: antagonism of ACh at M1; mean ± S.E.M. of three experiments in triplicate
T1 sequence (P11229 1-460): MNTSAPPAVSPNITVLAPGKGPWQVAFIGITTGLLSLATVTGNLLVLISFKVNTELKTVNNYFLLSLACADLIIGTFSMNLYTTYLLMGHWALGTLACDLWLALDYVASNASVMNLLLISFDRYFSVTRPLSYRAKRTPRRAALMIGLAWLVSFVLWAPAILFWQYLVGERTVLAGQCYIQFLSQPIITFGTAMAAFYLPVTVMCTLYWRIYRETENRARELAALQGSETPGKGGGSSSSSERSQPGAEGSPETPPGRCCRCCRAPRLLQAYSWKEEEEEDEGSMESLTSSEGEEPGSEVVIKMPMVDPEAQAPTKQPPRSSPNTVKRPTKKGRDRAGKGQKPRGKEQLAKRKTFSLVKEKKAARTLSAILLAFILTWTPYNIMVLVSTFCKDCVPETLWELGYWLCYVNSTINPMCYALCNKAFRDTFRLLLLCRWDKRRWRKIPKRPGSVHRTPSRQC

[3] = test system: rat (r) M1-5 receptors; assay: calcium mobilization assay, rat M1-5 selectivity; type: cell-based; conditions: CRCs in the presence of an EC80 concentration of ACh; Figure 5
[4] = in vitro hepatic microsome intrinsic clearance; type: in vitro ADME, rat
[5] = target: T2, hM1 (Homo sapiens, UniProt P11229); assay: hM1 antagonist potency, calcium mobilization assay; type: cell-based; conditions: for % ACh activity remaining: at the highest concentration tested (30 μM)
T2 sequence (P11229 1-460): T1 sequence (P11229 1-460)

[6] = test system: pilocarpine-induced seizures; conditions: rodents; cited from earlier work
[7] = test system: contextual fear conditioning; conditions: at doses that reduced seizures; cited from earlier work

displacement of the orthosteric ligand [3H]NMS [1]: complete displacement
selectivity at rat M1 compared to M2-5 [3]: selectively antagonize M1
predicted hepatic clearance (CLHEP) ([4]; predicted from microsome intrinsic clearance): 42.3 mL/min/kg
CLint scaled ([4]; rat, hepatic microsomes): 107 mL/min/kg
Compound: O=C(C1CN(S(=O)(=O)c2cccc3cnccc23)C1)N1CC2CN(c3ccncc3)CC2C1 (stereo not drawn) [12a]
slope of Schild regression [2]: 0.94 ± 0.01

% ACh activity remaining ([5]; hM1): 40%
Compound: O=C(C1CN(S(=O)(=O)c2ccc(C(F)(F)F)nc2)C1)N1CCN(c2ccncc2)CC1 [7u]

IC50 [5]: 5000 nM
Compound: O=C(C1CN(S(=O)(=O)c2cccc3nonc23)C1)N1CCN(c2ccccn2)CC1 [(1-(Benzo[c][1,2,5]oxadiazol-4-ylsulfonyl)azetidin-3-yl)(4-(pyridin-2-yl)piperazin-1-yl)methanone]

displacement of the orthosteric ligand [3H]NMS [1]: complete displacement
Compound: O=C(C1CN(S(=O)(=O)c2ccc3c(c2)OCO3)C1)N1CCN(c2ccncc2)CC1 [7o]
slope of Schild regression [2]: 0.96 ± 0.02

fold increase in potency ([5]; hM1, relative to ML012): 8 fold
Compound: O=C(C1CN(S(=O)(=O)c2ccc3c(c2)CCO3)C1)N1CCN(c2ccncc2)CC1 [7v]

% ACh activity remaining ([5]; hM1): 41%
Compound: O=C(C1CN(S(=O)(=O)c2ccc(Cl)cn2)C1)N1CCN(c2ccncc2)CC1 [7f]

fold less active / less potent than ML012 ([5]; hM1, relative to ML012): 3 fold
Compound: O=C(C1CN(S(=O)(=O)c2cccc3nsnc23)C1)N1CCN(c2ccncc2)CC1 [2d]

Compound: O=C(CCNS(=O)(=O)c1cccc2nsnc12)N1CCN(c2ccncc2)CC1 [ML012]
effect on pilocarpine-induced seizures [6]: reduced pilocarpine-induced seizures
impact on contextual fear conditioning [7]: no negative impact on contextual fear conditioning

% ACh activity remaining ([5]; hM1): 38%
Compound: Cc1ccnc(S(=O)(=O)N2CC(C(=O)N3CCN(c4ccncc4)CC3)C2)c1 [7e]

Compound: Brc1ccc(N2CCNCC2)nc1 [(5-bromopyridin-2-yl)piperazine]
IC50 ([5]; read-out: hM1 IC50): 280 nM

Compound: CN1[C@@H]2CC[C@H]1C[C@@H](OC(=O)C(CO)c1ccccc1)C2 (stereo partly drawn) [atropine, reference compound]
displacement of the orthosteric ligand [3H]NMS [1]: compete with [^3H]NMS binding at M1

% ACh activity remaining ([5]; hM1): 20%
Compound: COc1ccc(S(=O)(=O)N2CC(C(=O)N3CCN(c4ccncc4)CC3)C2)cn1 [7t]
